Data published in US11369565B2, “Amino-pyrimidine skeletal muscle modulators” (Cytokinetics, Inc., priority 2010, dated 2022).

System: rabbit skeletal myofibrils (approximately 90% fast fibers)
Assay: Activation of fast skeletal myofibrils (PUMA coupled-enzyme ATPase assay at pCa25)
Format: biochemical
Conditions: concentration at which the compound increased the enzymatic activity by 40%; calcium at pCa25; PM12 buffer pH 6.8
Procedure: Preparation of fast skeletal myofibrils. Rabbit skeletal myofibrils were prepared based upon the method of Herrmann et al. (Biochem. 32(28):7255-7263(1993). Myofibrils were prepared from rabbit psoas muscle purchased from Pel-Freez Biologicals (Arkansas) within 2 days of ordering, stored on ice. Minced muscle was homogenized in 10 volumes of ice-cold “standard” buffer (50 mM Tris, pH 7.4, 0.1 M potassium acetate, 5 mM KCl, 2 mM DTT, 0.2 mM PMSF, 10 μM leupeptin, 5 μM pepstatin, and 0.5 mM sodium azide) containing 5 mM EDTA and 0.5% Triton X-100 using an Omni-Macro homogenizer. Myofibrils were recovered by low speed centrifugation (3000 rpm for 10 minutes) and washed 2 times in the Triton X-100 containing buffer to ensure removal of cellular membrane. Following the Triton washes, myofibrils were washed 3 times in “standard” buffer containing 2 mM magnesium acetate. A final wash in assay buffer (12 mM PIPES, pH 6.8, 60 mM KCl, 1 mM DTT) was performed and brought to 10% sucrose for flash freezing in liquid nitrogen and storage at −80° C.
Activation of Fast Skeletal Myofibrils. Fast fiber activators were identified by measuring the enzymatic activity of muscle myofibril preparations using the proprietary PUMA™ (see, e.g., U.S. Pat. Nos. 6,410,254, 6,743,599, 7,202,051, and 7,378,254) assay system. Myofibril preparations consisted of rabbit skeletal muscle (approximately 90% fast fibers) that had been mechanically homogenized and washed with a detergent (triton X-100) to remove cellular membranes. This preparation retained all of the sarcomeric components in a native conformation and the enzymatic activity was still regulated by calcium. Compounds were tested using a myofibril suspension and a level of calcium sufficient to increase enzymatic activity of the myofibrils to 25% of their maximal rate (termed pCa25). Enzymatic activity was tracked via a pyruvate kinase and lactate dehydrogenase-coupled enzyme system. This assay regenerates myosin-produced ADP into ATP by oxidizing NADH, producing an absorbance change at 340 nm. The buffering system was 12 mM Pipes, 2 mM MgCl2, 1 mM DTT at pH 6.8 (PM12 buffer).

| Molecule | Mean AC1.4 |
| --- | --- |
| CC(C)(Nc1ncc(-c2cn3c(C(N)=O)csc3n2)cn1)c1ncccc1Cl | B (B=1-10 uM) |
| CC(C)(Nc1ncc(-c2cn3c(C(=O)O)csc3n2)cn1)c1ncccc1Cl | B (B=1-10 uM) |
| 2-{[2-(4-f1uorophenyl)-2- methylpropyl]amino}-5,6,7,8- tetrahydropyridino[4,3- d]pyrimidine-6-carboxamide | D (D=>20 uM) |
| CC(C)(Nc1ncc(-n2cc(C#N)cn2)cn1)c1ncccc1Cl [1-(2-{[1-(3-chloro(2-pyridyl))-isopropyl]amino}pyrimidin-5-yl)pyrazole-4-carbonitrile] | D (D=>20 uM) |
| CC(C)(Nc1ncc(-n2cc(C(N)=O)cn2)cn1)c1ncccc1Cl [1-(2-{[1-(3-chloro(2-pyridyl))-isopropyl]amino}pyrimidin-5-yl)pyrazole-4-carboxamide] | B (B=1-10 uM) |
| CC(C)(Nc1ncc(-n2cc(C(=O)O)cn2)cn1)c1ncccc1Cl [1-(2-{[1-(3-chloro(2-pyridyl))-isopropyl]amino}pyrimidin-5-yl)pyrazole-4-carboxylic acid] | D (D=>20 uM) |
| CC(C)(Nc1ncc(-n2ccc(C(N)=O)c2)cn1)c1ncccc1Cl [1-(2-{[1-(3-chloro(2-pyridyl))-isopropyl]amino}pyrimidin-5-yl)pyrrole-3-carboxamide] | B (B=1-10 uM) |
| CC(C)(Nc1ncc(-n2cc(C(N)=O)cn2)cn1)c1ncccc1F [1-(2-{[1-(3-fluoro(2-pyridyl))-isopropyl]amino}pyrimidin-5-yl)pyrazole-4-carboxamide] | D (D=>20 uM) |
| NC(=O)c1ccc(=O)n(-c2cnc(NC[C@]3(c4ncccc4F)C[C@H](F)C3)nc2)c1 [1-[2-({[3-fluoro-1-(3-fluoro(2-pyridyl))cyclobutyl]methyl)amino)pyrimidin-5-yl]-6-oxohydropyridine-3-carboxamide] | D (D=>20 uM) |
| O=C(O)c1ccc(=O)n(-c2cnc(NC[C@]3(c4ncccc4F)C[C@H](F)C3)nc2)c1 [1-[2-({[3-fluoro-1-(3-fluoro(2-pyridyl))cyclobutyl]methyl}amino)pyrimidin-5-yl]-6-oxohydropyridine-3-carboxylic acid] | D (D=>20 uM) |
| N#Cc1cnn(-c2cnc(NC[C@]3(c4ncccc4F)C[C@H](F)C3)nc2)c1 [1-[2-({[3-fluoro-1-(3-fluoro(2-pyridyl))cyclobutyl]methyl}amino)pyrimidin-5-yl]pyrazole-4-carbonitrile] | C (C=10-20 uM) |
| NC(=O)c1ccn(-c2cnc(NC[C@]3(c4ncccc4F)C[C@H](F)C3)nc2)c1 [1-[2-({[3-fluoro-1-(3-fluoro(2-pyridyl))cyclobutyl]methyl}amino)pyrimidin-5-yl]pyrrole-3-carboxamide] | A (A=<1 uM) |
| O=C(O)c1ccn(-c2cnc(NC[C@]3(c4ncccc4F)C[C@H](F)C3)nc2)c1 [1-[2-({[3-fluoro-1-(3-fluoro(2-pyridyl))cyclobutyl]methyl}amino)pyrimidin-5-yl]pyrrole-3-carboxylic acid] | D (D=>20 uM) |
| O=c1cc(O)ccn1-c1cnc(NC[C@]2(c3ncccc3F)C[C@H](F)C2)nc1 [1-[2-({[3-fluoro--1-(3-fluoro(2-pyridyl))cyclobutyl]methyl)amino)pyrimidin-5-yl]-4-hydroxyhydropyridin-2-one] | D (D=>20 uM) |
| NC(=O)c1cnn(-c2cnc(NCC3(c4ncccc4F)CCC3)nc2)c1 [1-[2-({[(3-fluoro-2-pyridyl)cyclobutyl]methyl}amino)pyrimidin-5-yl] pyrazole-4-carboxamide] | B (B=1-10 uM) |
| O=C(O)c1cnn(-c2cnc(NCC3(c4ncccc4F)CCC3)nc2)c1 [1-[2-({[(3-fluoro-2-pyridyl)cyclobutyl]methyl}amino)pyrimidin-5-yl]pyrazole-4-carboxylic acid] | D (D=>20 uM) |
| CC(C)(CNc1ncc(C(=O)NC2(C(N)=O)CC2)cn1)c1ccc(F)cc1 [1-[(2-{[2-(4-fluorophenyl)-2-methylpropyl]amino}pyrimidin-5-yl)carbonylamino] cyclopropanecarboxamide] | D (D=>20 uM) |
| CC(C)(CNc1ncc(C(=O)NC2(C(=O)O)CC2)cn1)c1ccc(F)cc1 [1-[(2-{[2-(4-fluorophenyl)-2-methylpropyl]amino}pyrimidin-5-yl)carbonylamino] cyclopropanecarboxylic acid] | D (D=>20 uM) |

| Molecule | Mean AC1.4 |
| --- | --- |
| CC(C)(Nc1ncc(-c2nc(C(N)=O)co2)cn1)c1ncccc1Cl [2-(2-{[1-(3-chloro(2-pyridyl))-isopropyl]amino}pyrimidin-5-yl)-1,3-oxazole-4-carboxamide] | D (D=>20 uM) |
| CC(C)(Nc1ncc(-c2ncc(C(N)=O)o2)cn1)c1ncccc1Cl [2-(2-{[1-(3-chloro(2-pyridyl))-isopropyl]amino}pyrimidin-5-yl)-1,3-oxazole-5-carboxamide] | D (D=>20 uM) |
| CC(C)(Nc1ncc(-c2ncc(C(=O)O)o2)cn1)c1ncccc1Cl [2-(2-{[1-(3-chloro(2-pyridyl))-isopropyl]amino}pyrimidin-5-yl)-1,3-oxazole-5-carboxylic acid] | D (D=>20 uM) |
| CC(C)(Nc1ncc(-c2nc(C(=O)O)cs2)cn1)c1ncccc1Cl [2-(2-{[1-(3-chloro(2-pyridyl))-isopropyl]amino}pyrimidin-5-yl)-1,3-thiazole-4-carboxylic acid] | D (D=>20 uM) |
| CC(C)(Nc1ncc(-c2ncc(C(N)=O)s2)cn1)c1ncccc1Cl [2-(2-{[1-(3-chloro(2-pyridyl))-isopropyl]amino}pyrimidin-5-yl)-1,3-thiazole-5-carboxamide] | B (B=1-10 uM) |
| CC(C)(Nc1ncc(-c2cn3cc(C(N)=O)ccc3n2)cn1)c1ncccc1Cl [2-(2-{[1-(3-chloro(2-pyridyl))-isopropyl]amino}pyrimidin-5-yl)-4-hydroimidazo[1,2-a]pyridine-6-carboxamide] | C (C=10-20 uM) |
| CC(C)(Nc1ncc(-c2cn3cc(C(=O)O)ccc3n2)cn1)c1ncccc1Cl [2-(2-{[1-(3-chloro(2-pyridyl))-isopropyl]amino}pyrimidin-5-yl)-4-hydroimidazo[1,2-a]pyridine-6-carboxylic acid] | D (D=>20 uM) |
| CC(C)(Nc1ncc(-c2cn3ccc(C(N)=O)cc3n2)cn1)c1ncccc1Cl [2-(2-{[1-(3-chloro(2-pyridyl))-isopropyl]amino}pyrimidin-5-yl)-4-hydroimidazo[1,2-a]pyridine-7-carboxamide] | D (D=>20 uM) |
| CC(C)(Nc1ncc(-c2cn3cccc(C(N)=O)c3n2)cn1)c1ncccc1Cl [2-(2-{[1-(3-chloro(2-pyridyl))-isopropyl]amino}pyrimidin-5-yl)-4-hydroimidazo[1,2-a]pyridine-8-carboxamide] | B (B=1-10 uM) |
| CC(C)(Nc1ncc(-c2cc(C#N)ccn2)cn1)c1ncccc1Cl [2-(2-{[1-(3-chloro(2-pyridyl))-isopropyl]amino}pyrimidin-5-yl)pyridine-4-carbonitrile] | C (C=10-20 uM) |
| CC(C)(Nc1ncc(-c2cc(C(N)=O)ccn2)cn1)c1ncccc1Cl [2-(2-{[1-(3-chloro(2-pyridyl))-isopropyl]amino}pyrimidin-5-yl)pyridine-4-carboxamide] | B (B=1-10 uM) |
| CC(C)(Nc1ncc(-c2nc(C(=O)O)co2)cn1)c1ncccc1Cl [2-(2-{[1-(3-chloro(2-pyridyl))-isopropyl}amino}pyrimidin-5-yl)-1,3-oxazole-4-carboxylic acid] | D (D=>20 uM) |
| CC(C)(Nc1ncc(-c2nc(C(N)=O)cs2)cn1)c1ncccc1F [2-(2-{[1-(3-fluoro(2-pyridyl))-isopropyl]amino}pyrimidin-5-yl)-1,3-thiazole-4-carboxamide] | D (D=>20 uM) |
| CC(C)(Nc1ncc(-c2ncc(C#N)s2)cn1)c1ncccc1F [2-(2-{[1-(3-fluoro(2-pyridyl))-isopropyl]amino}pyrimidin-5-yl)-1,3-thiazole-5-carbonitrile] | D (D=>20 uM) |
| CC(C)(Nc1ncc(-c2ncc(C(N)=O)s2)cn1)c1ncccc1F [2-(2-{[1-(3-fluoro(2-pyridyl))-isopropyl]amino}pyrimidin-5-yl)-1,3-thiazole-5-carboxamide] | D (D=>20 uM) |
| CC(C)(Nc1ncc(-c2nccc(C(N)=O)n2)cn1)c1ncccc1F [2-(2-{[1-(3-fluoro(2-pyridyl))-isopropyl]amino}pyrimidin-5-yl)pyrimidine-4-carboxamide] | D (D=>20 uM) |
| COc1ccnc(C(C)(C)Nc2ncc(-c3ncc(C(N)=O)s3)cn2)n1 [2-(2-{[1-(4-methoxypyrimidin-2-yl)-isopropyl]amino}pyrimidin-5-yl)-1,3-thiazole-5-carboxamide] | D (D=>20 uM) |
